Measured values as given in US11339144B2 (Navitor Pharmaceuticals, Inc., priority 2017, dated 2022).

Columns and labels:
[1] = biological target: HA-GST-Rheb (GTP-γ-S loaded) activating mTORC1 (Homo sapiens (Human), UniProt Q15382); assay: Rheb-dependent in vitro kinase assay (Rheb-IVK; LanthaScreen or Western readout); assay type: biochemical; details: Rheb-dependent in vitro kinase assay; read-out: IVK IC50
Rheb = Rheb (Homo sapiens (Human), UniProt Q15382); assay: Affinity Selection Mass Spectrometry (ASMS); assay type: binding; details: affinity (R3/R0) in Affinity Selection Mass Spectrometry assay
Description: Method 2 (Affinity Selection Mass Spectrometry
Protein: Rheb (19 KDa) in the following buffer: 20 mM Tris, pH 8.0, 200 mM NaCl, 2 mM DTT, 5 mM MgCl2 was prepared as under.
Human Rheb protein (I-169) was purified from BL21 (DE3) E. coli using a His-Smt-Rheb expression vector. The cell paste was lysed in lysis buffer (50 mM HEPES pH 7.5, 0.5 M NaCl, 5% Glycerol, 1% CHAPS, EDTA free protease inhibitor tablets, lysozyme to 1 mg/mL, benzonase 250U), sonicated, and purified on a HiTrap Ni Chelating Column (GE Healthcare) using the following buffer: 50 mM HEPES pH 7.5, 0.5 M NaCl, 5% Glycerol, and imidazole increasing in concentration from 5 mM to 500 mM. The His-Smt tag was cleaved using a U1p1 enzyme and dialyzed into 50 mM HEPES pH 7.5, 0.5 M NaCl, 5% Glycerol. The resultant protein was again purified on a Ni Chelating column to remove the U1p1 enzyme and His-Smt tag and then purified by size exclusion chromatography on a Sephacryl S-100 26/60 column into the following final buffer: 20 mM NaPhos pH 7.0, 100 mM NaCl, 5 mM MgCl2, 2 mM TCEP.
Concentrations: 60 μM Rheb, 180 μM GDP and 2 μM of each compound,
Ultrafiltration Filter (Sartorius, Germany) MW cutoff: 10 KDa
• (a) Sample preparation: Prepare sample for each group in 1.5 mL microcentrifuge tube according to the experimental design, total volume 550 μL. In a standard ASMS experiment there are two groups: Protein plus (P+L+) and protein minus (P−L+). • (b) Transfer 50 μL from the 550 μL to a vial as R0 sample. Incubate the rest solution for 30 min at room temperature. Then transfer the 500 μL into an ultrafiltration filter tube and centrifuge at 12×10^3 rpm for ˜10 min, leave about 50 μL solution (otherwise adjust this time). • (c) Add incubation buffer to the ultrafiltration filter tube to about 500 μL. Stir gently and centrifuge mixtures as above, leave about 50 μL solution. • (d) Repeat the step c. Transfer the remaining 50 μL upper layer solution to a new vial as R^3 sample. Sample Extraction: Add 150 μL MeCN to denature the protein completely. Centrifuge at 12×10^3 rpm for 5 min. Transfer the supernatant into LC-MS auto sampler vials for LC-MS analysis (5 uL injection).
Waters Acquity UPLC system, Waters ACQUITY UPLC BEH C18 column (2.1×50 mm, 1.7 μM); Mobile phase A: 0.1% formic acid solution, B: MeCN; 0.3 mL/min, 5 μL injection, gradient elution (Table 5).
Waters Synapt G1 Q-TOF system, positive or negative ion scan modes; Capillary voltage: 3.0 kV; Method: MSE; Mass range: m/z=100-1000; Source temperature: 120° C.; Desolvation temperature: 400° C.; Collision voltage: 35 V; Sampling Cone: 35 V; Extraction Cone: 4.0 V; Cone Gas: 50 L/h; Desolvation Gas: 800 L/h.

Sequence of Rheb (Q15382 1-169 limits assumed): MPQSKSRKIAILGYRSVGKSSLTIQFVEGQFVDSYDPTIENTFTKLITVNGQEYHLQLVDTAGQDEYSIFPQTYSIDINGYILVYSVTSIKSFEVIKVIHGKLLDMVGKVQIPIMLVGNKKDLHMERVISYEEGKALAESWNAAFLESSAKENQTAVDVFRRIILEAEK
Sequence of HA-GST-Rheb (GTP-γ-S loaded) activating mTORC1 (Q15382 1-181): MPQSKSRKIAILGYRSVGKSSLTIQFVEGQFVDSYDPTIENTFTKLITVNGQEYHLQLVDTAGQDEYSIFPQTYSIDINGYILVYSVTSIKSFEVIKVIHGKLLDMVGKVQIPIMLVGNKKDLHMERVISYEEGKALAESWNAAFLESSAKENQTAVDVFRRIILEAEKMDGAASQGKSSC

O=C(NCCN1CCCC1)c1cc2c(Sc3ccc(Cl)cc3)cc(Cl)cc2[nH]1 [I-148, 6-chloro-4-(4-chlorophenylthio)-N-(2-(pyrrolidin-1-yl)ethyl)-1H-indole-2-carboxamide]
IC50 [1]: 10 to 100 µM
ASMS (R3/R0) (Rheb): B (an affinity (R3/R0) between 100% and 20%)

CN(C)C(=O)c1ccc(Cn2c(C(=O)O)cc3c(Br)cc(SC4CCCCC4)cc32)cc1 [I-11]
IC50 [1]: > 3 µM
ASMS (R3/R0) (Rheb): B (an affinity (R3/R0) between 100% and 20%)

Clc1cc2nc(-c3cccnc3)[nH]c2c(Cl)c1Cl [I-355]
IC50 [1]: > 100 µM
ASMS (R3/R0) (Rheb): B (an affinity (R3/R0) between 100% and 20%)

CN(C)C(=O)c1ccc(Cn2c(C(=O)O)cc3cc(-c4ccccc4)c(Sc4ccc(Cl)c(Cl)c4)cc32)cc1 [I-2]
IC50 [1]: < 10 µM
ASMS (R3/R0) (Rheb): B (an affinity (R3/R0) between 100% and 20%)

O=C(O)Cn1ccc2c(Oc3cc(Cl)ccc3Cl)cc(Cl)cc21 [I-158, 2-(6-Chloro-4-(2,5-dichlorophenoxy)-1H-indol-1-yl)acetic acid]
IC50 [1]: 10 to 100 µM
ASMS (R3/R0) (Rheb): B (an affinity (R3/R0) between 100% and 20%)

Clc1cccc(Oc2cc(Cl)cc3[nH]ccc23)c1 [I-208, 6-chloro-4-(3-chlorophenoxy)-1H-indole]
IC50 [1]: 10 to 100 µM
ASMS (R3/R0) (Rheb): B (an affinity (R3/R0) between 100% and 20%)

O=C1CCc2ccc(Oc3cc(Cl)cc4[nH]c(CO)cc34)cc2N1 [I-59]
IC50 [1]: > 100 µM
ASMS (R3/R0) (Rheb): C (an affinity (R3/R0)<20%)

Brc1cc(Oc2ccccc2)cc2c1ccn2Cc1ccc(-c2nn[nH]n2)cc1 [I-220, 1-(4-(2H-tetrazol-5-yl)benzyl)-4-bromo-6-phenoxy-1H-indole]
IC50 [1]: < 10 µM
ASMS (R3/R0) (Rheb): A (an affinity (R3/R0)>100%)

Clc1ccc2[nH]c(-c3cnco3)cc2c1Oc1ccccc1 [I-256, 5-(5-chloro-4-phenoxy-1H-indol-2-yl)oxazole]
IC50 [1]: 10 to 100 µM
ASMS (R3/R0) (Rheb): B (an affinity (R3/R0) between 100% and 20%)

CN1CCN(c2ccc(NC(=O)c3cc4c(Sc5ccc(Cl)cc5Cl)cc(Cl)cc4[nH]3)cc2F)CC1 [I-113, 6-chloro-4-(2,4-dichlorophenylthio)-N-(3-fluoro-4-(4-methylpiperazin-1-yl)phenyl)-1H-indole-2-carboxamide]
IC50 [1]: < 10 µM
ASMS (R3/R0) (Rheb): C (an affinity (R3/R0)<20%)

OCc1cc2c(Oc3ccccc3Cl)cc(Cl)cc2[nH]1 [I-216, (6-chloro-4-(2-chlorophenoxy)-1H-indol-2-yl)methanol]
IC50 [1]: 10 to 100 µM
ASMS (R3/R0) (Rheb): B (an affinity (R3/R0) between 100% and 20%)

OCc1cc2c(F)cc(Oc3ccccc3)cc2[nH]1 [I-249, (4-fluoro-6-phenoxy-1H-indol-2-yl)methanol]
IC50 [1]: 10 to 100 µM
ASMS (R3/R0) (Rheb): C (an affinity (R3/R0)<20%)

O=C(O)c1nc2cc(OCc3ccc(Cl)cc3)c(Cl)c(Cl)c2[nH]1 [I-338, 6,7-dichloro-5-(4-chlorobenzyloxy)-1H-benzo[d]imidazole-2-carboxylic acid]
IC50 [1]: > 3 µM
ASMS (R3/R0) (Rheb): B (an affinity (R3/R0) between 100% and 20%)

CN1CCC[C@H]1CNC(=O)c1cc2c(Br)cc(Sc3ccc(Cl)c(Cl)c3)cc2[nH]1 [I-89]
IC50 [1]: > 100 µM
ASMS (R3/R0) (Rheb): A (an affinity (R3/R0)>100%)

O[C@@H]1CCC[C@H](COc2c(Cl)c(Cl)cc3[nH]c(-c4ccncc4)nc23)C1 [I-324, (1R,3S)-3-((5,6-dichloro-2-(pyridin-4-yl)-1H-benzo[d]imidazol-4-yloxy)methyl)cyclohexanol]
IC50 [1]: > 3 µM
ASMS (R3/R0) (Rheb): B (an affinity (R3/R0) between 100% and 20%)

Clc1ccc(Sc2cc(Cl)cc3[nH]c(-c4c[nH]c5ncccc45)nc23)cc1 [I-339, 6-chloro-4-(4-chlorophenylthio)-2-(1H-pyrrolo[2,3-b]pyridin-3-yl)-1H-benzo[d]imidazole]
IC50 [1]: > 3 µM
ASMS (R3/R0) (Rheb): B (an affinity (R3/R0) between 100% and 20%)

CN1CCC(NC(=O)c2ccc(Cn3c(C(=O)O)cc4c(Br)cc(Oc5ccccc5)cc43)cc2)C1 (stereo not shown) [I-53]
IC50 [1]: > 100 µM
ASMS (R3/R0) (Rheb): B (an affinity (R3/R0) between 100% and 20%)

CN(C)Cc1cc2c(Br)cc(Sc3ccc(Cl)c(Cl)c3)cc2n1Cc1ccc(C(=O)N(C)C)cc1 [I-39]
IC50 [1]: > 100 µM
ASMS (R3/R0) (Rheb): B (an affinity (R3/R0) between 100% and 20%)

O=C(O)c1ccc(Cn2c(C(=O)O)cc3c(Br)cc(Sc4ccc(Cl)c(Cl)c4)cc32)cc1 [I-42, 4-bromo-1-(4-carboxybenzyl)-6-(3,4-dichlorophenylthio)-1H-indole-2-carboxylic acid]
IC50 [1]: < 10 µM
ASMS (R3/R0) (Rheb): B (an affinity (R3/R0) between 100% and 20%)

OCc1nc2cc(OCc3ccc(Cl)cc3)c(Cl)c(Cl)c2[nH]1 [I-375, (6,7-dichloro-5-(4-chlorobenzyloxy)-1H-benzo[d]imidazol-2-yl)methanol]
IC50 [1]: < 10 µM
ASMS (R3/R0) (Rheb): A (an affinity (R3/R0)>100%)

OCc1cc2c(Oc3cccc(Cl)c3)cc(Cl)cc2[nH]1 [I-215, (6-chloro-4-(3-chlorophenoxy)-1H-indol-2-yl)methanol]
IC50 [1]: 10 to 100 µM
ASMS (R3/R0) (Rheb): B (an affinity (R3/R0) between 100% and 20%)

OCc1nc2cc(Cl)c(OCCc3ccc(Cl)cc3)cc2[nH]1 [I-380, (5-chloro-6-(4-chlorophenethoxy)-1H-benzo[d]imidazol-2-yl)methanol]
IC50 [1]: 10 to 100 µM
ASMS (R3/R0) (Rheb): B (an affinity (R3/R0) between 100% and 20%)

O[C@@H]1CCC[C@@H](COc2c(Cl)c(Cl)cc3[nH]c(-c4ccncc4)nc23)C1 [I-323]
IC50 [1]: > 3 µM
ASMS (R3/R0) (Rheb): B (an affinity (R3/R0) between 100% and 20%)

CN(C)C(=O)c1ccc(Cn2c(C(=O)O)cc3c(Br)cc(Sc4ccc(Oc5ccccc5)cc4)cc32)cc1 [I-15, 4-bromo-1-(4-(dimethylcarbamoyl)benzyl)-6-(4-phenoxyphenyl-thio)-1H-indole-2-carboxylic acid]
IC50 [1]: < 10 µM
ASMS (R3/R0) (Rheb): B (an affinity (R3/R0) between 100% and 20%)

O=C(O)c1cc2c(Sc3ccc(Cl)cc3)cc(Cl)c(Cl)c2[nH]1 [I-73, 6,7-dichloro-4-(4-chlorophenylthio)-1H-indole-2-carboxylic acid]
IC50 [1]: < 10 µM
ASMS (R3/R0) (Rheb): A (an affinity (R3/R0)>100%)

O=C(O)c1ccc(Cn2c(-c3ccncc3)nc3cc(Cl)c(Cl)cc32)cc1 [I-365, 4-((5,6-dichloro-2-(pyridin-4-yl)-1H-benzo[d]imidazol-1-yl)methyl)benzoic acid]
IC50 [1]: 10 to 100 µM
ASMS (R3/R0) (Rheb): C (an affinity (R3/R0)<20%)

CN(C)C(=O)c1ccc(Cn2c(C(=O)O)cc3c(Sc4cccc(OC(F)(F)F)c4)cc(Sc4cccc(OC(F)(F)F)c4)cc32)cc1 [I-19, 1-(4-(dimethylcarbamoyl)benzyl)-4,6-bis(3-(trifluoromethoxy)phenylthio)-1H-indole-2-carboxylic acid]
IC50 [1]: < 10 µM
ASMS (R3/R0) (Rheb): B (an affinity (R3/R0) between 100% and 20%)

Clc1ccc(Cl)c(Sc2cccc3[nH]ccc23)c1 [I-209, 4-(2,5-dichlorophenylthio)-1H-indole]
IC50 [1]: 10 to 100 µM
ASMS (R3/R0) (Rheb): B (an affinity (R3/R0) between 100% and 20%)

CN1CCN(C(=O)c2cc3nc(-c4ccnc5[nH]ccc45)[nH]c3c(Cl)c2Cl)CC1 [I-321]
IC50 [1]: > 100 µM
ASMS (R3/R0) (Rheb): C (an affinity (R3/R0)<20%)

Clc1cc2nc(-c3ccncc3)[nH]c2cc1Cl [I-378, 5,6-dichloro-2-(pyridin-4-yl)-1H-benzo[d]imidazole]
IC50 [1]: 10 to 100 µM
ASMS (R3/R0) (Rheb): B (an affinity (R3/R0) between 100% and 20%)

OCc1cc2c(Oc3cc(Cl)ccc3Cl)cc(Cl)cc2[nH]1 [I-171, (6-Chloro-4-(2,5-dichlorophenoxy)-1H-indol-2-yl)methanol]
IC50 [1]: 10 to 100 µM
ASMS (R3/R0) (Rheb): B (an affinity (R3/R0) between 100% and 20%)

OCc1cc2c(Sc3ccc(Oc4ccccc4)cc3)cc(Cl)cc2[nH]1 [I-116, (6-chloro-4-(4-phenoxyphenylthio)-1H-indol-2-yl)methanol]
IC50 [1]: < 10 µM
ASMS (R3/R0) (Rheb): B (an affinity (R3/R0) between 100% and 20%)
